In patent US10988485B2 (Amgen Inc., priority 2018, dated 2021):
Like-named read-outs stand apart in the source and are kept apart here.

Tests used:
[1] = biological target: GDP-bound KRAS protein (aa 1-169), containing both G12C and C118A amino acid substitutions (Homo sapiens, UniProt P01116, C118A/G12C); experiment: Coupled Nucleotide Exchange Assay (SOS-mediated nucleotide exchange, AlphaScreen); assay type: biochemical; conditions: compound pre-incubation either 5 min or 2 hours (not stated per compound); SOS and GTP added, cRAF AlphaScreen read-out
Method: (§1) For compounds in Table 6, the following assay conditions were employed:
Coupled Nucleotide Exchange Assay: Purified GDP-bound KRAS protein (aa 1-169), containing both G12C and C118A amino acid substitutions and an N-terminal His-tag, was pre-incubated in assay buffer (25 mM HEPES pH 7.4, 10 mM MgCl2, and 0.01% Triton X-100) with a compound dose-response titration for either 5 min or 2 hours (see Table 15). Following compound pre-incubation, purified SOS protein (aa 564-1049) and GTP (Roche 10106399001) were added to the assay wells and incubated for an additional 30 min (for 5 min compound pre-incubation) or 1 hour (for 2 hour compound pre-incubation). To determine the extent of inhibition of SOS-mediated nucleotide exchange, purified GST-tagged cRAF (aa 1-149), nickel chelate AlphaLISA acceptor beads (PerkinElmer AL108R), and AlphaScreen glutathione donor beads (PerkinElmer 6765302) were added to the assay wells and incubated for 10 minutes. The assay plates were then read on a PerkinElmer EnVision Multilabel Reader, using AlphaScreen® technology, and data were analyzed using a 4-parameter logistic model to calculate IC50 values.

[2] = test system: Phosphorylation of ERK1/2 in MIA PaCa-2 cells; experiment: Phospho-ERK1/2 MSD Assay; assay type: cell-based; conditions: compound 2 or 4 hours, then 10 ng/mL EGF for 10 min, read-out: p-ERK IC50 (MIA-PaCa-2) (converted)
Method: as §1
Phospho-ERK1/2 MSD Assay: MIA PaCa-2 (ATCC® CRL-1420™) cells were cultured in RPMI 1640 Medium (ThermoFisher Scientific 11875093) containing 10% fetal bovine serum (ThermoFisher Scientific 16000044) and 1× penicillin-streptomycin-glutamine (ThermoFisher Scientific 10378016). Sixteen hours prior to compound treatment, MIA PaCa-2 cells were seeded in 96-well cell culture plates at a density of 25,000 cells/well and incubated at 37° C., 5% CO2. A compound dose-response titration was diluted in growth media, added to appropriate wells of a cell culture plate, and then incubated at 37° C., 5% CO2 for 2 or 4 hours. Following compound treatment, cells were stimulated with 10 ng/mL EGF (Roche 11376454001) for 10 min, washed with ice-cold Dulbecco's phosphate-buffered saline, no Ca^2+ or Mg^2+ (ThermoFisher Scientific 14190144), and then lysed in RIPA buffer (50 mM Tris-HCl pH 7.5, 1% Igepal, 0.5% sodium deoxycholate, 150 mM NaCl, and 0.5% sodium dodecyl sulfate) containing protease inhibitors (Roche 4693132001) and phosphatase inhibitors (Roche 4906837001). Phosphorylation of ERK1/2 in compound-treated lysates was assayed using Phospho-ERK1/2 Whole Cell Lysate kits (Meso Scale Discovery K151DWD) according to the manufacturer's protocol. Assay plates were read on a Meso Scale Discovery Sector imager 6000, and data were analyzed using a 4-parameter logistic model to calculate IC50 values.

[3] = Homo sapiens, MIA PaCa-2, MIA PaCa-2 cells

Sequence of GDP-bound KRAS protein (aa 1-169), containing both G12C and C118A amino acid substitutions (P01116 1-169 isoform P01116-2 G12C/C118A): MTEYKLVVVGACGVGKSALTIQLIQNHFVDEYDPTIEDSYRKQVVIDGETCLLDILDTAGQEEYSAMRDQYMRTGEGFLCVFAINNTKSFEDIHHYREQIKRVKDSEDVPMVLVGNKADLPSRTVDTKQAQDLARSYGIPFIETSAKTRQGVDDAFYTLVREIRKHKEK

| SMILES | IC50 [1] | IC50 ([2]; MIA PaCa-2 cells) | IC50 [2, 3] |
| --- | --- | --- | --- |
| C=CC(=O)N1C[C@H](C)N(C2=NS(=O)(=O)N(c3c(C)cnn3C(C)C)c3nc(-c4ccccc4F)c(Cl)cc32)C[C@H]1C (single isomer, unassigned) [Example 1-11-2] | 150 nM | 330 nM | – |
| C=CC(=O)N1C[C@H](C)N(C2=NS(=O)(=O)N(c3c(C)ccnc3C(C)C)c3nc(-c4ccccc4C)c(Cl)cc32)C[C@H]1C (single isomer, unassigned) [Example 1-12-1] | 220 nM | – | 290 nM |
| C=CC(=O)N1CCN(C2=NS(=O)(=O)N(c3c(C)ccnc3C(C)C)c3nc(-c4ccccc4F)c(Cl)cc32)[C@@H](C)C1 (single isomer, unassigned) [Example 2-2-1] | 240 nM | 270 nM | – |
| C=CC(=O)N1CCN(C2=NS(=O)(=O)N(c3c(C)ccnc3C(C)C)c3nc(-c4ccccc4F)c(Cl)cc32)[C@@H](C)C1 (single isomer, unassigned) [Example 2-2-2] | 2980 nM | 1520 nM | – |
| C=CC(=O)N1C[C@H](C)N(C2=NS(=O)(=O)N(c3ccccc3C(C)(C)C)c3nc(-c4ccccc4F)c(Cl)cc32)C[C@H]1C [Example 1-1] | – | 340 nM | – |
| C=CC(=O)N1CCN(C2=NS(=O)(=O)N(c3ccccc3C(C)C)c3nc(-c4c(O)cccc4F)c(Cl)cc32)[C@@H](C)C1 [Example 1-2, 1-((3S)-4-(6-chloro-7-(2-fluoro-6-hydroxyphenyl)-2,2-dioxido-1-(2-(2-propanyl)phenyl)-1H-pyrido[2,3-c][1,2,6]thiadiazin-4-yl)-3-methyl-1-piperazinyl)-2-propen-1-one] | 150 nM | – | 270 nM |
| C=CC(=O)N1CCN(C2=NS(=O)(=O)N(c3ccccc3C(C)C)c3nc(-c4c(N)cccc4F)c(Cl)cc32)[C@@H](C)C1 [Example 1-3, 1-((3S)-4-(7-(2-amino-6-fluorophenyl)-6-chloro-2,2-dioxido-1-(2-(2-propanyl)phenyl)-1H-pyrido[2,3-c][1,2,6]thiadiazin-4-yl)-3-methyl-1-piperazinyl)-2-propen-1-one] | 60 nM | – | 70 nM |
| C=CC(=O)N1C[C@H](C)N(C2=NS(=O)(=O)N(c3ccccc3C(C)C)c3nc(-c4c(O)cccc4F)c(Cl)cc32)C[C@H]1C [Example 1-4, 1-((2R,5S)-4-(6-chloro-7-(2-fluoro-6-hydroxyphenyl)-2,2-dioxido-1-(2-(2-propanyl)phenyl)-1H-pyrido[2,3-c][1,2,6]thiadiazin-4-yl)-2,5-dimethyl-1-piperazinyl)-2-propen-1-one] | 170 nM | – | 160 nM |
| C=CC(=O)N1C[C@H](C)N(C2=NS(=O)(=O)N(c3scnc3C(C)C)c3nc(-c4c(O)cccc4F)c(Cl)cc32)C[C@H]1C [Example 1-5, 1-((2R,5S)-4-(6-chloro-7-(2-fluoro-6-hydroxyphenyl)-2,2-dioxido-1-(4-(2-propanyl)-1,3-thiazol-5-yl)-1H-pyrido[2,3-c][1,2,6]thiadiazin-4-yl)-2,5-dimethyl-1-piperazinyl)-2-propen-1-one] | 100 nM | – | 110 nM |
| C=CC(=O)N1CCN(C2=NS(=O)(=O)N(c3ccccc3C(C)C)c3nc(-c4ccccc4S(C)(=O)=O)c(Cl)cc32)[C@@H](C)C1 [Example 1-9, 1-((3S)-4-(6-chloro-7-(2-(methylsulfonyl)phenyl)-2,2-dioxido-1-(2-(2-propanyl)phenyl)-1H-pyrido[2,3-c][1,2,6]thiadiazin-4-yl)-3-methyl-1-piperazinyl)-2-propen-1-one] | 190 nM | – | 180 nM |
| C=CC(=O)N1C[C@H](C)N(C2=NS(=O)(=O)N(c3c(C)cnn3C(C)C)c3nc(-c4ccccc4F)c(Cl)cc32)C[C@H]1C [Example 1-11, 1-((2R,5S)-4-(6-chloro-7-(2-fluorophenyl)-1-(4-methyl-1-(2-propanyl)-1H-pyrazol-5-yl)-2,2-dioxido-1H-pyrido[2,3-c][1,2,6]thiadiazin-4-yl)-2,5-dimethyl-1-piperazinyl)-2-propen-1-one] | 200 nM | – | 200 nM |
| C=CC(=O)N1C[C@H](C)N(C2=NS(=O)(=O)N(c3ccccc3C(C)C)c3nc(-c4ccccc4F)c(Cl)cc32)C[C@H]1C [Example 2-3, 1-((2R,5S)-4-(6-chloro-7-(2-fluorophenyl)-1-(2-isopropylphenyl)-2,2-dioxido-1H-pyrido[2,3-c][1,2,6]thiadiazin-4-yl)-2,5-dimethylpiperazin-1-yl)prop-2-en-1-one] | 180 nM | – | 240 nM |
| C=CC(=O)N1CCN(C2=NS(=O)(=O)N(c3c(C(C)C)ncnc3C(C)C)c3nc(-c4ccccc4F)c(Cl)cc32)[C@@H](C)C1 [Example 2-4, (S)-1-(4-(6-chloro-1-(4,6-diisopropylpyrimidin-5-yl)-7-(2-fluorophenyl)-2,2-dioxido-1H-pyrido[2,3-c][1,2,6]thiadiazin-4-yl)-3-methylpiperazin-1-yl)prop-2-en-1-one] | 290 nM | – | 310 nM |
| C=CC(=O)N1CCN(C2=NS(=O)(=O)N(c3ccccc3CC(C)C)c3nc(-c4ccccc4F)c(Cl)cc32)[C@@H](C)C1 [Example 3-2, 1-((3S)-4-(6-chloro-7-(2-fluorophenyl)-1-(2-(2-methylpropyl)phenyl)-2,2-dioxido-1H-pyrido[2,3-c][1,2,6]thiadiazin-4-yl)-3-methyl-1-piperazinyl)-2-propen-1-one] | 800 nM | – | – |
| C=CC(=O)N1C[C@H](C)N(C2=NS(=O)(=O)N(c3c(C)cc(CN(C)C)nc3C(C)C)c3nc(-c4ccccc4F)c(Cl)cc32)C[C@H]1C [Example 4, 1-((2R,5S)-4-(6-Chloro-1-(6-((dimethylamino)methyl)-4-methyl-2-(2-propanyl)-3-pyridinyl)-7-(2-fluorophenyl)-2,2-dioxido-1H-pyrido[2,3-c][1,2,6]thiadiazin-4-yl)-2,5-dimethyl-1-piperazinyl)-2-propen-1-one] | 5960 nM | – | – |
| C=CC(=O)N1CCN(C2=NS(=O)(=O)N(c3ccccc3C(C)C)c3nc(-c4c(O)cccc4F)c(F)cc32)[C@@H](C)C1 [Example 5, 1-((3S)-4-(6-Fluoro-7-(2-fluoro-6-hydroxyphenyl)-1-(2-isopropylphenyl)-2,2-dioxido-1H-pyrido[2,3-c][1,2,6]thiadiazin-4-yl)-3-methylpiperazin-1-yl)prop-2-en-1-one] | 1030 nM | – | – |
| C=CC(=O)N1C[C@H](C)N(C2=NS(=O)(=O)Nc3nc(-c4ccccc4F)c(Cl)cc32)C[C@H]1C [Example 7, 1-((2R,5S)-4-(6-Chloro-7-(2-fluorophenyl)-2,2-dioxido-1H-pyrido[2,3-c][1,2,6]thiadiazin-4-yl)-2,5-dimethyl-1-piperazinyl)-2-propen-1-one] | 16400 nM | – | – |
| C=CC(=O)N1C[C@H](C)N(C2=NS(=O)(=O)N(c3c(C)cc(CN(C)C)cc3C(C)C)c3nc(-c4c(N)cccc4F)c(Cl)cc32)C[C@H]1C [Example 8-2, 1-((2R,5S)-4-(7-(2-amino-6-fluorophenyl)-6-chloro-1-(4-((dimethylamino)methyl)-2-methyl-6-(2-propanyl)phenyl)-2,2-dioxido-1H-pyrido[2,3-c][1,2,6]thiadiazin-4-yl)-2,5-dimethyl-1-piperazinyl)-2-propen-1-one] | 1460 nM | – | – |
